According to PMC2065875, “A Point Mutation in a Herpesvirus Polymerase Determines Neuropathogenicity” (PLoS Pathogens, 2007):

Legend:
[1] = target: T1, EHV-1 Pol D752 + pORF18 (viral DNA polymerase holoenzyme) (Equine herpesvirus type 1 (strain AB4P), UniProt P28858, D752N); conditions: poly(dA)-oligo(dT) template, [3H]dTTP; 4 μl translated Pol plus 200 fmol pORF18 in 20 μl; 0.5% DMSO
T1 construct: gene 30

[2] = target: T2, EHV-1 Pol D752 + pORF18 (viral DNA polymerase holoenzyme) (Equine herpesvirus type 1 (strain AB4P), UniProt P28858); test: [3H]dTTP incorporation into poly(dA)-oligo(dT), in vitro translated Pol; type: biochemical; conditions: poly(dA)-oligo(dT) template, 4 μl translated Pol plus 200 fmol pORF18 in 20 μl, 0.5% DMSO
T2 construct: gene 30; Pol (D752) from pTM1-ORF30 made by in vitro transcription-translation (TNT T7 coupled reticulocyte lysate, not purified); pORF18 purified, baculovirus-expressed; with DNA polymerase processivity factor
T2 sequence (P28958 whole entry): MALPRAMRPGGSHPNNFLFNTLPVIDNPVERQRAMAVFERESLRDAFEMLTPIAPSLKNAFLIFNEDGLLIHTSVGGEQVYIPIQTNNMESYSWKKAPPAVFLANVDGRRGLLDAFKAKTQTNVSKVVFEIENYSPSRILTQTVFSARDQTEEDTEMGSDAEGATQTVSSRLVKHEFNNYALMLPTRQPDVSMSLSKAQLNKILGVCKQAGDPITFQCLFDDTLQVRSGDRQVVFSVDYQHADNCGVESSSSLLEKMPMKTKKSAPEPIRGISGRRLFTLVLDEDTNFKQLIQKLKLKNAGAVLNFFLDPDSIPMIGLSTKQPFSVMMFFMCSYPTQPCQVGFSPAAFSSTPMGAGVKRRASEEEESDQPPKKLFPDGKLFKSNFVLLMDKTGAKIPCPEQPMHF
T2 sequence (P28858 whole entry): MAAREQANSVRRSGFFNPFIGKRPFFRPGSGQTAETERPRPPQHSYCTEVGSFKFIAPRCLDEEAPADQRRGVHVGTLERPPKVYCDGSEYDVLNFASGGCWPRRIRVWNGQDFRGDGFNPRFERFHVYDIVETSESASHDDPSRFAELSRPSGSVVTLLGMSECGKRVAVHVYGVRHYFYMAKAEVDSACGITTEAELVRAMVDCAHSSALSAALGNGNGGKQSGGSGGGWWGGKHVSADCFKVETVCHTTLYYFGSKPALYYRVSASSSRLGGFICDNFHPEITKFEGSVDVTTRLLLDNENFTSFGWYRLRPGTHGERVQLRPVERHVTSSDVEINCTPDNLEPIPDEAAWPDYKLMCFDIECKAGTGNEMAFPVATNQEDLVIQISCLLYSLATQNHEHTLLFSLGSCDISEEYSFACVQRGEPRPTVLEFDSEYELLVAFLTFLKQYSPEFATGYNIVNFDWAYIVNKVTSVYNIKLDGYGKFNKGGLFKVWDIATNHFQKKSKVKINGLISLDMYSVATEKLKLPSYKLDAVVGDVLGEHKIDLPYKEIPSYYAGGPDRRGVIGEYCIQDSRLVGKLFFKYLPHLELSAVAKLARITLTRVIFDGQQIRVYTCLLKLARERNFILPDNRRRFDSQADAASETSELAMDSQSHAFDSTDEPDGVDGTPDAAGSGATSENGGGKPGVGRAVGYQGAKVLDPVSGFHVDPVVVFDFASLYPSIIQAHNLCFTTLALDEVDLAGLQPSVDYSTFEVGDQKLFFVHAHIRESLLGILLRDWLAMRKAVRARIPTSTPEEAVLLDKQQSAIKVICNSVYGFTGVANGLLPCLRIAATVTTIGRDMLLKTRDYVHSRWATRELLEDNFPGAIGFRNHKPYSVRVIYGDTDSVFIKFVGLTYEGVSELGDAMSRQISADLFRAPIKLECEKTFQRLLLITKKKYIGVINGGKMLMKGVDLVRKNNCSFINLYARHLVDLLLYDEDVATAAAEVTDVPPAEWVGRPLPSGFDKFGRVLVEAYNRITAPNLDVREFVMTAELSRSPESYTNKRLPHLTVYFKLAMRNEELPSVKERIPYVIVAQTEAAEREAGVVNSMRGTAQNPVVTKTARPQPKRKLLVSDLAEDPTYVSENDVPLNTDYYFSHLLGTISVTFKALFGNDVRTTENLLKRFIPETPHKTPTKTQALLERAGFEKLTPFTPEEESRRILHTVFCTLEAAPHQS

T1 sequence (P28858 whole entry, stated change not applied): as the sequence (P28858 whole entry) above
T1 sequence (P28958 whole entry, stated change not applied, further chain): as the sequence (P28958 whole entry) above

Question: For aphidicolin, which IC50 [1] is on record?
Answer: 900 nM

Question: And the IC50 [2]?
Answer: 3100 nM
